Assay [1] concerns the target 5-HT2A (Homo sapiens, UniProt P28223). Briefly: Calcium flux (FLIPR) assay, human 5-HT2A stably expressed in HEK-293 (Flp-In-293) cells. The note with it: for Emax, % 5-HT 5-HT2A: normalized to 5-HT.
For assay [2], the target named is 5-HT2B (Homo sapiens, UniProt P41595). The assay can be described thus: Calcium flux (FLIPR) assay, human 5-HT2B stably expressed in HEK-293 (Flp-In-293) cells. Particulars: for Emax, % 5-HT 5-HT2B: normalized to 5-HT. A general note: Calcium flux is commonly read through the fluorescence of an indicator in the cells.
Assay [3] concerns the target T1, human 5-HT2C-INI (Homo sapiens, UniProt P28335).
T1 sequence (P28335 33-458): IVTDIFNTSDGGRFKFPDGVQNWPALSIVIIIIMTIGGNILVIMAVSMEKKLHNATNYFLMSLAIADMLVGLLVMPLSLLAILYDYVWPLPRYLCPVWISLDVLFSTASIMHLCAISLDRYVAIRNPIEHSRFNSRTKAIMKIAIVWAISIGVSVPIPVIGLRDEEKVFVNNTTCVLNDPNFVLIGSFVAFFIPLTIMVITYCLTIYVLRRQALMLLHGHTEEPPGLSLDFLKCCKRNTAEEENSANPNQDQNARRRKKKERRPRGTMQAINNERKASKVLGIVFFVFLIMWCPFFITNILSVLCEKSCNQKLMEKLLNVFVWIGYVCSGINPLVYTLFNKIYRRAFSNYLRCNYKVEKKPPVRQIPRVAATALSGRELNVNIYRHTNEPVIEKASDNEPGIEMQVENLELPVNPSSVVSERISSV
The assay can be described thus: Calcium flux (FLIPR) assay, human 5-HT2C-INI stably expressed in HEK-293 (Flp-In-293) cells. The note with it: human 5-HT2C-INI in HEK-293 cells, FLIPR; for EC50: NA = no activity at 10 μM; for Emax, % 5-HT 5-HT2C: normalized to 5-HT.

[4] abbreviates: EC50, nM 5-HT2A, human 5-HT2A in HEK-293 cells, FLIPR, NA = no activity at 10 μM.
Where [5] appears, read: human 5-HT2A in HEK-293 cells, FLIPR.
Where [6] appears, read: EC50, nM 5-HT2B, human 5-HT2B in HEK-293 cells, NA = no activity at 10 μM.
The mark [7] stands for this setting: read-out: EC50, nM 5-HT2A, human 5-HT2A in HEK-293 cells, FLIPR, NA = no activity at 10 μM.
[8] abbreviates: read-out: EC50, nM 5-HT2B, human 5-HT2B in HEK-293 cells, NA = no activity at 10 μM.

Results on 15 compounds are retold here after patent publication US10407381B2 (THE BOARD OF TRUSTEES OF THE UNIVERSITY OF ILLINOIS, priority 2015, dated 2019).

Read-outs that look alike come from different tables or passages of the source.

5-HT2B, sequence (P41595 whole entry): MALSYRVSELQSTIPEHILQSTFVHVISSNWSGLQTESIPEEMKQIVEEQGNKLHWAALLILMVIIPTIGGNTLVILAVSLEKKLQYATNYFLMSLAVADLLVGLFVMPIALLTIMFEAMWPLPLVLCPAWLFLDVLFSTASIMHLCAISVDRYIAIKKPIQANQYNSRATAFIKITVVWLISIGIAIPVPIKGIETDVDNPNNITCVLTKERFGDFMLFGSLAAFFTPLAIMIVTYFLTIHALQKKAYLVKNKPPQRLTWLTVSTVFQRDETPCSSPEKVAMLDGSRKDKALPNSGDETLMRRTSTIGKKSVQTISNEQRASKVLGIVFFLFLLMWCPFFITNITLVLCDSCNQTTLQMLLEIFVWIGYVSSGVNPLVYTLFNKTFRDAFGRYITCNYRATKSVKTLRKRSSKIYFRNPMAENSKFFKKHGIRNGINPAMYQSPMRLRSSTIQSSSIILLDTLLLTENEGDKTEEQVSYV
5-HT2A, sequence (P28223 whole entry): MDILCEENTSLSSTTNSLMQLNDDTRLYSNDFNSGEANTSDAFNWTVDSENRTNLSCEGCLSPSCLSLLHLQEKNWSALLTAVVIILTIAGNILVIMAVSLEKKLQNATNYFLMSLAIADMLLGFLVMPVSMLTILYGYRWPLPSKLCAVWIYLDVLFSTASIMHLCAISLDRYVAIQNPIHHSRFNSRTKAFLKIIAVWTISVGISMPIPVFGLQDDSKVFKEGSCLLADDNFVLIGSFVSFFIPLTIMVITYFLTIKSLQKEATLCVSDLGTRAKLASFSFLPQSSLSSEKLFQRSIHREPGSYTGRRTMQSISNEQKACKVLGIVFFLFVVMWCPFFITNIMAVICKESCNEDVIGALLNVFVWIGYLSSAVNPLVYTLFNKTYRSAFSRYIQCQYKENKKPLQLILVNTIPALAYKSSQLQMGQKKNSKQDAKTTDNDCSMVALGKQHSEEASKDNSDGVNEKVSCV

The EC50 is the midpoint of the concentration-response curve. `C#CCOc1cc(F)c(Cl)cc1C1CC1CN` (single isomer, unassigned; (+)) [(+)-Example 6, (+)-(2-(5-Chloro-4-fluoro-2-(prop-2-yn-1-yloxy)phenyl)cyclopropyl)methanamine]: the EC50 amounted to 628 nM in assay [1] (setting [4]); 1010 nM in assay [2] (setting [6]); 67 nM in assay [3] (EC50, nM 5-HT2C). Further, the “Emax, % 5-HT 5-HT2A” value in assay [1] (setting [5]) is “(22%) % 5-HT”. In assay [2] (human 5-HT2B in HEK-293 cells), the “Emax, % 5-HT 5-HT2B” value was “(30%) % 5-HT”. Moreover, in assay [3], the “Emax, % 5-HT 5-HT2C” value is listed as “(80%) % 5-HT”.
For `CCCOc1ccc(F)cc1C1CC1CN` (single isomer, unassigned; (+)) [(+)-Example 7, (+)-(2-(5-Fluoro-2-propoxyphenyl)cyclopropyl)methanamine], the EC50 in assay [1] (setting [4]) is 1020 nM; in assay [2] (setting [6]), 1990 nM; in assay [3] (EC50, nM 5-HT2C), 11 nM. The “Emax, % 5-HT 5-HT2A” value in assay [1] (setting [5]) is on record as “(15%) % 5-HT”. For the same compound, in assay [2] (human 5-HT2B in HEK-293 cells), the “Emax, % 5-HT 5-HT2B” value is given as “(33%) % 5-HT”. Also, the “Emax, % 5-HT 5-HT2C” value in assay [3] was “(88%) % 5-HT”.
As for `CCOc1ccc(Cl)cc1C1CC1CN` (single isomer, unassigned; (+)) [(+)-Example 11, (+)-(2-(5-Chloro-2-ethoxyphenyl)cyclopropyl)methanamine], the EC50 was 1210 nM in assay [1] (setting [4]); 86 nM in assay [2] (setting [6]); 13 nM in assay [3] (EC50, nM 5-HT2C). In assay [1] (setting [5]), the “Emax, % 5-HT 5-HT2A” value was “(49%) % 5-HT”. The “Emax, % 5-HT 5-HT2B” value in assay [2] (human 5-HT2B in HEK-293 cells) is “(45%) % 5-HT”. In addition, the “Emax, % 5-HT 5-HT2C” value in assay [3] was “(91%) % 5-HT”.
For the compound `CC(C)Oc1ccc(Cl)cc1C1CC1CN` (single isomer, unassigned; (+)) [(+)-Example 14, (+)-(2-(5-Chloro-2-isopropoxyphenyl)cyclopropyl)methanamine], the EC50 in assay [1] (setting [4]) is 4000 nM; in assay [2] (setting [6]), 997 nM; in assay [3] (EC50, nM 5-HT2C), 91 nM. The “Emax, % 5-HT 5-HT2A” value in assay [1] (setting [5]) was “(19%) % 5-HT”. In addition, the “Emax, % 5-HT 5-HT2B” value in assay [2] (human 5-HT2B in HEK-293 cells) was “(37%) % 5-HT”. Besides, the “Emax, % 5-HT 5-HT2C” value in assay [3] is on record as “(86%) % 5-HT”.
On to `NCC1CC1c1cc(Cl)ccc1OCC(F)F` (single isomer, unassigned; (+)) [(+)-Example 21, (+)-(2-(5-Chloro-2-(2,2-difluoroethoxy)phenyl)cyclopropyl)methanamine], for which the EC50 worked out at 1810 nM in assay [1] (setting [4]); 839 nM in assay [2] (setting [6]); 91 nM in assay [3] (EC50, nM 5-HT2C). Besides, the “Emax, % 5-HT 5-HT2A” value in assay [1] (setting [5]) is listed as “(31%) % 5-HT”. Further, the “Emax, % 5-HT 5-HT2B” value in assay [2] (human 5-HT2B in HEK-293 cells) is “(27%) % 5-HT”. Moreover, in assay [3], the “Emax, % 5-HT 5-HT2C” value is “(81%) % 5-HT”.
Consider `C=C(C)COc1ccc(Cl)cc1C1CC1CN` (single isomer, unassigned; (+)) [(+)-Example 24, (+)-(2-(5-Chloro-2-((2-methylallyl)oxy)phenyl)cyclopropyl)methanamine], for which the EC50 was 903 nM in assay [1]; 422 nM in assay [2] (setting [6]); 212 nM in assay [3] (EC50, nM 5-HT2C). In assay [1] (setting [5]), the “Emax, % 5-HT 5-HT2A” value is “(26%) % 5-HT”. The “Emax, % 5-HT 5-HT2B” value in assay [2] (human 5-HT2B in HEK-293 cells) is given as “(32%) % 5-HT”. Moreover, the “Emax, % 5-HT 5-HT2C” value in assay [3] is on record as “(90%) % 5-HT”.
`C#CCOc1ccc(Cl)cc1C1CC1CN` (single isomer, unassigned; (+)) [(+)-Example 26, (+)-(2-(5-Chloro-2-(prop-2-yn-1-yloxy)phenyl)cyclopropyl)methanamine]: the EC50 in assay [1] (setting [4]) came out at 1010 nM; in assay [2] (setting [6]) it was 4600 nM; in assay [3] (EC50, nM 5-HT2C), 63 nM. In addition, the “Emax, % 5-HT 5-HT2A” value in assay [1] (setting [5]) is “(21%) % 5-HT”. Also, in assay [2] (human 5-HT2B in HEK-293 cells), the “Emax, % 5-HT 5-HT2B” value is on record as “(29%) % 5-HT”. In assay [3], the “Emax, % 5-HT 5-HT2C” value was “(65%) % 5-HT”.
For the compound `CCOc1ccc(Cl)c(F)c1C1CC1CN` (single isomer, unassigned; (+)) [(+)-Example 30, (+)-(2-(3-Chloro-6-ethoxy-2-fluorophenyl)cyclopropyl)methanamine], the EC50 in assay [1] (setting [4]) worked out at 820 nM; in assay [2] (setting [6]) it was 900 nM; in assay [3] (EC50, nM 5-HT2C), 28 nM. Moreover, the “Emax, % 5-HT 5-HT2A” value in assay [1] (setting [5]) is on record as “(53%) % 5-HT”. The “Emax, % 5-HT 5-HT2B” value in assay [2] (human 5-HT2B in HEK-293 cells) is listed as “(36%) % 5-HT”. The “Emax, % 5-HT 5-HT2C” value in assay [3] is on record as “(89%) % 5-HT”.
With `C=CCOc1ccc(Cl)c(F)c1C1CC1CN` (single isomer, unassigned; (+)) [(+)-Example 32, (+)-(2-(6-(Allyloxy)-3-chloro-2-fluorophenyl)cyclopropyl)methanamine], the “Emax, % 5-HT 5-HT2A” value in assay [1] (setting [5]) is “(12%) % 5-HT”. Besides, the EC50 amounted to 6980 nM in assay [2] (setting [6]) and 116 nM in assay [3] (EC50, nM 5-HT2C). Moreover, in assay [2] (human 5-HT2B in HEK-293 cells), the “Emax, % 5-HT 5-HT2B” value was “(69%) % 5-HT”. Besides, in assay [3], the “Emax, % 5-HT 5-HT2C” value is “(90%) % 5-HT”.
Consider `COc1cc(Cl)c(Cl)cc1C1CC1CN` (single isomer, unassigned; (+)) [(+)-Example 33, (+)-(2-(4,5-Dichloro-2-methoxyphenyl)cyclopropyl)methanamine], for which the “Emax, % 5-HT 5-HT2A” value in assay [1] (setting [5]) is “(85%) % 5-HT”. Moreover, the EC50 in assay [1] (setting [7]) was 21 nM; in assay [2] (setting [8]), 31 nM; in assay [3] (read-out: EC50, nM 5-HT2C), 9.7 nM. For the same compound, the “Emax, % 5-HT 5-HT2C” value in assay [3] was “(95%) % 5-HT”.
Take `NCC1CC1c1cc(Cl)c(Cl)cc1OCCF` (single isomer, unassigned; (+)) [(+)-Example 34, (+)-(2-(4,5-Dichloro-2-(2-fluoroethoxy)phenyl)cyclopropyl)methanamine]: the EC50 in assay [1] was 92 nM; in assay [2] (setting [6]), 15400 nM; in assay [3] (EC50, nM 5-HT2C) it was 18 nM. Also, the “Emax, % 5-HT 5-HT2B” value in assay [2] (human 5-HT2B in HEK-293 cells) is given as “(40%) % 5-HT”. Also, the “Emax, % 5-HT 5-HT2C” value in assay [3] is reported as “(87%) % 5-HT”.
With `COc1ccc(Cl)c(Cl)c1C1CC1CN` (single isomer, unassigned; (+)) [(+)-Example 36, (+)-(2-(2,3-Dichloro-6-methoxyphenyl)cyclopropyl)methanamine], the “Emax, % 5-HT 5-HT2A” value in assay [1] (setting [5]) is listed as “(76%) % 5-HT”. Besides, the EC50 turned out to be 203 nM in assay [1] (setting [7]); 534 nM in assay [2] (setting [8]); 21 nM in assay [3] (read-out: EC50, nM 5-HT2C). Besides, in assay [2] (human 5-HT2B in HEK-293 cells), the “Emax, % 5-HT 5-HT2B” value is “(46%) % 5-HT”. The “Emax, % 5-HT 5-HT2C” value in assay [3] was “(98%) % 5-HT”.
On to `CCOc1ccc(Cl)c(Cl)c1C1CC1CN` (single isomer, unassigned; (+)) [(+)-Example 37, (+)-(2-(2,3-Dichloro-6-ethoxyphenyl)cyclopropyl)methanamine], for which the EC50 was 976 nM in assay [1] (setting [4]); 1310 nM in assay [2] (setting [6]); 91 nM in assay [3] (EC50, nM 5-HT2C). The “Emax, % 5-HT 5-HT2A” value in assay [1] (setting [5]) is “(32%) % 5-HT”. The “Emax, % 5-HT 5-HT2B” value in assay [2] (human 5-HT2B in HEK-293 cells) is listed as “(61%) % 5-HT”. Besides, the “Emax, % 5-HT 5-HT2C” value in assay [3] is “(101%) % 5-HT”.
For the compound `NCC1CC1c1c(OCCF)ccc(Cl)c1Cl` (single isomer, unassigned; (+)) [(+)-Example 38, (+)-(2-(2,3-Dichloro-6-(2-fluoroethoxy)phenyl)cyclopropyl)methanamine], the EC50 in assay [1] is 949 nM; in assay [2] (setting [6]), 5520 nM; in assay [3] (EC50, nM 5-HT2C), 232 nM. Also, the “Emax, % 5-HT 5-HT2A” value in assay [1] (setting [5]) is reported as “(22%) % 5-HT”. In addition, the “Emax, % 5-HT 5-HT2B” value in assay [2] (human 5-HT2B in HEK-293 cells) was “(99%) % 5-HT”. Further, the “Emax, % 5-HT 5-HT2C” value in assay [3] is reported as “(90%) % 5-HT”.
Regarding `COc1cc(F)c(F)cc1C1CC1CN` (single isomer, unassigned; (+)) [(+)-Example 40, (+)-(2-(4,5-Difluoro-2-methoxyphenyl)cyclopropyl)methanamine], the EC50 in assay [1] (setting [7]) worked out at 81 nM. Further, in assay [2] (human 5-HT2B in HEK-293 cells), the “Emax, % 5-HT 5-HT2B” value was “(69%) % 5-HT”. In addition, in assay [3], the “Emax, % 5-HT 5-HT2C” value was “(108%) % 5-HT”.
